Test results published in patent publication US12286435B2, “Compound having benzo seven-membered ring structure, preparation method therefor, and use thereof” (BIONNA (BEIJING) MEDICAL TECHNOLOGY CO., LTD., priority 2019, dated 2025).
“And” between values parts separate entries of the source, which are not always exact repeats. Equal values may be shown once. Read-outs that look alike come from different tables or passages of the source.

How the values were obtained:
BRD4 BD1 protein = BRD4 BD1 protein (Homo sapiens (Human), UniProt O60885); experiment: Fluorescence polarization binding affinity (Ki) with BRD4 BD1 protein
BRD4 BD2 protein = BRD4 BD2 protein (Homo sapiens (Human), UniProt O60885); experiment: Fluorescence polarization binding affinity (Ki) with BRD4 BD2 protein
[1] = fluorescence polarization, Ki calculated from IC50

SMILES	Ki (BRD4 BD1 protein; [1]) [nM]	Ki (BRD4 BD2 protein; [1])	Ki (BRD4 BD1 protein) [nM]	Ki (BRD4 BD2 protein) [nM]
CNC(=O)Cc1ccccc1NC1CCn2nnc(C)c2-c2ccc(C3=CCNCC3)cc21 (centres unmarked) [LC132]	724	55.9 nM	–	–
Cc1nnn2c1-c1ccc(C3=CCN(C(C)C)CC3)cc1C(Nc1cccc(S(C)(=O)=O)c1)CC2 (centres unmarked) [BI60, 9-(1-isopropyl-1,2,3,6-tetrahydropyridin-4-yl)-1-methyl-N-(3-(methylsulfonyl)phenyl)-6,7-dihydro-5H-benzo[c][1,2,3]triazolo[1,5-a]azepin-7-amine 2,2,2-trifluoroacetate]	4740	307 nM	–	–
Cc1nnn2c1-c1ccc(C3=CCNCC3)cc1C(Nc1cccc(C#N)c1)CC2 (centres unmarked) [LC75, 3-((1-methyl-9-(1,2,3,6-tetrahydropyridin-4-yl)-6,7-dihydro-5H-benzo[c][1,2,3]triazolo[1,5-a]azepin-7-yl)amino)benzonitrile 2,2,2-trifluoroacetate]	2290	116 nM	–	–
Cc1nnn2c1-c1ccc(C3=CCN(C4CCCCC4)CC3)cc1C(Nc1cccc(C#N)c1)CC2 (centres unmarked) [BI29, 3-((9-(1-cyclohexyl-1,2,3,6-tetrahydropyridin-4-yl)-1-methyl-6,7-dihydro-5H-benzo[c][1,2,3]triazolo[1,5-a]azepin-7-yl)amino)benzonitrile 2,2,2-trifluoroacetate]	2660	168 nM	–	–
Cc1nnn2c1-c1ccc(C3=CCN(C4CCCCC4)CC3)cc1C(Nc1cccc(Cl)c1F)CC2 (centres unmarked) [RD178, N-(3-chloro-2-fluorophenyl)-9-(1-cyclohexyl-1,2,3,6-tetrahydropyridin-4-yl)-1-methyl-6,7-dihydro-5H-benzo[c][1,2,3]triazolo[1,5-a]azepin-7-amine 2,2,2-trifluoroacetate]	–	–	1260	32.7
Cc1nnn2c1-c1ccc(C3=CCNCC3)cc1C(Nc1ccc(CC#N)cc1)CC2 (centres unmarked) [RC73, 2-(4-((1-methyl-9-(1,2,3,6-tetrahydropyridin-4-yl)-6,7-dihydro-5H-benzo[c][1,2,3]triazolo[1,5-a]azepin-7-yl)amino)phenyl)acetonitrile 2,2,2-trifluoroacetate]	2370	139 nM	–	–
Cc1nnn2c1-c1ccc(C3=CCNCC3)cc1C(Nc1ccc(F)c(Cl)c1)CC2 (centres unmarked) [LC192, N-(3-chloro-4-fluorophenyl)-1-methyl-9-(1,2,3,6-tetrahydropyridin-4-yl)-6,7-dihydro-5H-benzo[c][1,2,3]triazolo[1,5-a]azepin-7-amine 2,2,2-trifluoroacetate]	819	56.6 nM	–	–
Cc1nnn2c1-c1ccc(C3=CCN(C(=O)C4CC4)CC3)cc1C(Nc1cccc(Cl)c1)CC2 (centres unmarked) [BH123, (4-(7-((3-chlorophenyl)amino)-1-methyl-6,7-dihydro-5H-benzo[c][1,2,3]triazolo[1,5-a]azepin-9-yl)-3,6-dihydropyridin-1 (2H)-yl) (cyclopropyl)methanone]	46.7	7.64 nM	–	–
Cc1nnn2c1-c1ccc(-c3cnn(C)c3)cc1C(Nc1ccccc1Cl)CC2 (centres unmarked) [LC191, N-(2-chlorophenyl)-1-methyl-9-(1-methyl-1H-pyrazol-4-yl)-6,7-dihydro-5H-benzo[c][1,2,3]triazolo[1,5-a]azepin-7-amine]	51.8	11.2 nM	–	–
CC(=O)N1CC=C(c2ccc3c(c2)C(Oc2cccc(Cl)c2)CCn2nnc(C)c2-3)CC1 (centres unmarked) [BH81, 1-(4-(7-(3-chlorophenoxy)-1-methyl-6,7-dihydro-5H-benzo[c][1,2,3]triazolo[1,5-a]azepin-9-yl)-3,6-dihydropyridin-1(2H)-yl)ethan-1-one]	869	31.1 nM	–	–
Cc1nnn2c1-c1ccc(C3=CCNCC3)cc1C(Nc1ccccc1CC#N)CC2 (centres unmarked) [RC82, 2-(2-((1-methyl-9-(1,2,3,6-tetrahydropyridin-4-yl)-6,7-dihydro-5H-benzo[c][1,2,3]triazolo[1,5-a]azepin-7-yl)amino)phenyl) acetonitrile 2,2,2-trifluoroacetate]	2370	1520 nM	–	–
Cc1nnn2c1-c1ccc(C3=CCN(C4CCCC4)CC3)cc1C(Nc1cccc(C#N)c1)CC2 (centres unmarked) [BI31, 3-((9-(1-cyclopentyl-1,2,3,6-tetrahydropyridin-4-yl)-1-methyl-6,7-dihydro-5H-benzo[c][1,2,3]triazolo[1,5-a]azepin-7-yl)amino)benzonitrile 2,2,2-trifluoroacetate]	2290	151 nM	–	–
Cc1nnn2c1-c1ccc(C3=CCN(C)CC3)cc1C(Nc1ccc(CO)cc1)CC2 (centres unmarked) [RD41, (4-((1-methyl-9-(1-methyl-1,2,3,6-tetrahydropyridin-4-yl)-6,7-dihydro-5H-benzo[c][1,2,3]triazolo[1,5-a]azepin-7-yl)amino)pheny 1)methanol 2,2,2-trifluoroacetate]	1550	55.1 nM	–	–
CC(=O)N1CC=C(c2ccc3c(c2)C(Nc2cccc(Cl)c2F)CCn2nnc(C)c2-3)CC1 (centres unmarked) [RD180, 1-(4-(7-((3-chloro-2-fluoro-phenyl)amino)-1-methyl-6,7-dihydro-5H-benzo[c][1,2,3]triazolo[1,5-a]azepin-9-yl)-3,6-dihydropyridin-1 (2H)-yl)ethan-1-one]	52	12.1 nM	–	–
Cc1nnn2c1-c1ccc(C3=CCNCC3)cc1C(Nc1ccccc1O)CC2 (centres unmarked) [LC127, 2-((1-methyl-9-(1,2,3,6-tetrahydropyridin-4-yl)-6,7-dihydro-5H-benzo[c][1,2,3]triazolo[1,5-a]azepin-7-yl)amino)phenol 2,2,2-trifluoroacetate]	793	41.5 nM	–	–
Cc1nnn2c1-c1ccc(C3=CCN(C4CCCC4)CC3)cc1C(Nc1cccc(Cl)c1F)CC2 (centres unmarked) [RD179, N-(3-chloro-2-fluorophenyl)-9-(1-cyclopentyl-1,2,3,6-tetrahydropyridin-4-yl)-1-methyl-6,7-dihydro-5H-benzo[c][1,2,3]triazolol[1,5-a]azepin-7-amine 2,2,2-trifluoroacetate]	2810	32.6 nM	–	–
Cc1nnn2c1-c1ccc(C3=CCN(C4CCCC4)CC3)cc1C(Nc1ccc(F)c(Cl)c1)CC2 (centres unmarked) [WYA10, N-(3-chloro-4-fluorophenyl)-9-(1-cyclopentyl-1,2,3,6-tetrahydropyridin-4-yl)-1-methyl-6,7-dihydro-5H-benzo[c][1,2,3]triazolo[1,5-a]azepin-7-amine 2,2,2-trifluoroacetate]	719	20.7 nM and 47.4 nM	–	–
Cc1nnn2c1-c1ccc(C3=CCNC3)cc1C(Nc1cccc(Cl)c1)CC2 (centres unmarked) [BJ179, N-(3-chlorophenyl)-9-(2,5-dihydro-1H-pyrrol-3-yl)-1-methyl-6,7-dihydro-5H-benzo[c][1,2,3]triazolo[1,5-a]azepin-7-amine 2,2,2-trifluoroacetate]	436	25.9 nM	–	–
Cc1nnn2c1-c1ccc(C3=CCNCC3)cc1C(Nc1ccccc1Cl)CC2 (centres unmarked) [LC84, N-(2-chlorophenyl)-1-methyl-9-(1,2,3,6-tetrahydropyridin-4-yl)-6,7-dihydro-5H-benzo[c][1,2,3]triazolo[1,5-a]azepin-7-amine 2,2,2-trifluoroacetate]	845	37.8 nM	–	–
Cc1nnn2c1-c1ccc(C3=CCNCC3)cc1C(Nc1cccc(CC#N)c1)CC2 (centres unmarked) [RC71, 2-(3-((1-methyl-9-(1,2,3,6-tetrahydropyridin-4-yl)-6,7-dihydro-5H-benzo[c][1,2,3]triazolo[1,5-a]azepin-7-yl)amino)phenyl)acetonitrile 2,2,2-trifluoroacetate]	1040	52.5 nM	–	–
Cc1nnn2c1-c1ccc(-c3cnn(C)c3)cc1C(NC1CCCCC1)CC2 (centres unmarked) [BH46, N-cyclohexyl-1-methyl-9-(1-methyl-1H-pyrazol-4-yl)-6,7-dihydro-5H-benzo[c][1,2,3]triazolo[1,5-a]azepin-7-amine 2,2,2-trifluoroacetate]	689	907 nM	–	–
Cc1nnn2c1-c1ccc(-c3cnn(C)c3)cc1[C@H](Nc1ccc(Cl)cc1)CC2 [RE127, (R)—N-(4-chlorophenyl)-1-methyl-9-(1-methyl-1H-pyrazo1-4-yl)-6,7-dihydro-5H-benzo[c][1,2,3]triazolo[1,5-a]azepin-7-amine]	4.15 ± 0.21	< 1 nM	–	–
COc1ccccc1NC1CCn2nnc(C)c2-c2ccc(C3=CCNCC3)cc21 (centres unmarked) [LC158, N-(2-methoxyphenyl)-1-methyl-9-(1,2,3,6-tetrahydropyridin-4-yl)-6,7-dihydro-5H-benzo[c][1,2,3]triazolo[1,5-a]azepin-7-amine 2,2,2-trifluoroacetate]	859	41.6 nM	–	–
Cc1nnn2c1-c1ccc(-c3cnn(C)c3)cc1C(Nc1ccccc1CCN(C)C)CC2 (centres unmarked) [LC99, N-(2-(2-(dimethylamino)ethyl)phenyl)-1-methyl-9-(1-methyl-1H-pyrazol-4-yl)-6,7-dihydro-5H-benzo[c][1,2,3]triazolo[1,5-a]azepin-7-amine]	38.4	12.9 nM	–	–
CCN1CC=C(c2ccc3c(c2)C(Nc2cccc(C#N)c2)CCn2nnc(C)c2-3)CC1 (centres unmarked) [BI37, 3-((9-(1-ethyl-1,2,3,6-tetrahydropyridin-4-yl)-1-methyl-6,7-dihydro-5H-benzo[c][1,2,3]triazolo[1,5-a]azepin-7-yl)amino)benzonitrile 2,2,2-trifluoroacetate]	2570	196 nM	–	–
CCC(=O)N1CC=C(c2ccc3c(c2)C(Nc2ccc(Cl)cc2)CCn2nnc(C)c2-3)CC1 (centres unmarked) [LD14, 1-(4-(7-((4-chlorophenyl)amino)-1-methyl-6,7-dihydro-5H-benzo[c][1,2,3]triazolo[1,5-a]azepin-9-yl)-3,6-dihydropyridin-1(2H)-yl)propan-1-one]	14.3	6.14 nM	–	–
Cc1nnn2c1-c1ccc(C3=CCN(C(C)C)CC3)cc1C(Nc1cc(Cl)ccc1F)CC2 (centres unmarked) [BI68, N-(5-chloro-2-fluorophenyl)-9-(1-isopropyl-1,2,3,6-tetrahydropyridin-4-yl)-1-methyl-6,7-dihydro-5H-benzo[c][1,2,3]triazolo[1,5-a]azepin-7-amine 2,2,2-trifluoroacetate]	1110	45.1 nM	–	–
COC(=O)c1ccccc1NC1CCn2nnc(C)c2-c2ccc(-c3cnn(C)c3)cc21 (centres unmarked) [LB160, methyl 2-((1-methyl-9-(1-methyl-1H-pyrazol-4-yl)-6,7-dihydro-5H-benzo[c][1,2,3]triazolo[1,5-a]azepin-7-yl)amino)benzoate]	96.4	12.5 nM	–	–
